Measured values published in patent US20170368176A1 (priority 2014, published 2017).
Several values for one entry are separate records, joined by “and”; a condition that tells them apart may be missing. Equal values may be shown once. Entries after “also recorded” stand apart in the source; their conditions may differ. Where a name gives a salt, the structure may show the parent alone. Read-outs that look alike come from different tables or passages of the source.

Tests used:
rat cornea = test system: rat cornea; set-up: species or system Sprague-Dawley rats; conditions: in vivo
[1] = test system: human corneal limbal epithelial (HCLE) cells
rats [2] = conditions: rat, in vivo
rats [3] = conditions: rat, in vivo; cited from earlier work
[4] = in vivo; cited from earlier work
peripheral nerve = conditions: in vivo; cited from earlier work
α2-AR = conditions: cited from earlier work
[5] = in vivo; cited from earlier work; remark: listed apart in the source

For N=C1N[C@@H](O)[C@H]2[C@@H]3OC4(O)OC(C(O)[C@@]2(N1)[C@@H]4O)[C@]3(O)CO (stereo partly drawn) [TTX, Tetrodotoxin], which “Block0.5 duration of corneal block” value (rat cornea) is on record?
The value was 12 ± 12.5 min.

What about the “Block2 duration of corneal block” value (rat cornea) of the same compound?
The value was 39 ± 22.7 min.

What about the “Block < 6 duration of corneal block” value (rat cornea) of the same compound?
The value was 117 ± 19.5 min.

And the “animals in which block0.5 of any duration occurred” value (rat cornea)?
The value was 5 of 14.

And the “block<6 durations compared with 15 mM proparacaine” value (rat cornea)?
The value was “comparable to those from 15 mM proparacaine”.

Which “HCLE cell survival compared to cells not exposed to drug” value [1] does the source give for Cc1cccc([C@H](C)c2cnc[nH]2)c1C [DMED, (S)-4-[1-(2,3-Dimethylphenyl)ethyl]-3H-imidazole] here?
Its value is “not reduced”.

What about the “sedation, dose response of DMED (FIG. 4)” value (rats [2]) of the same compound?
The value was “sedation results from the higher two doses”.

And the “perineural doses that produce undesired sedation” value (rats [3])?
The value was “above 6 μg/kg”.

And the “Block0.5 (duration without blink response to 0.5 cm filament)” value (rat cornea)?
Its value is 0 ± 0 min.

And the “Block2 (duration without blink response to 2 cm filament)” value (rat cornea)?
Its value is 0 ± 0 min.

And the “Block<6 (duration without blink response to any filament less than 6 cm)” value (rat cornea)?
Its value is 0 ± 0 min.

And the “corneal anesthesia (in words)” value (rat cornea)?
Its value is “did not produce any degree of corneal anesthesia”.

What about the “effect of increasing doses of DMED on block (FIG. 4)” value (rat cornea) of the same compound?
The value was “do not increase block further”.

And the half-life [4]?
Its half-life is “approximately 2 hours”.

What about the “effective concentrations in peripheral nerve” value (peripheral nerve) of the same compound?
The value was 2.7 µM.

Which results are given for Clc1cccc(Cl)c1N=C1NCCN1 [CLON, clonidine hydrochloride]?
selectivity for the α2-AR, times less selective than dexmedetomidine (α2-AR): 8 times; effect of the added agent on the duration of corneal block from TTX (in words) (rat cornea): failed to prolong corneal block; effective concentrations in peripheral nerve (peripheral nerve): 10 µM

What does the source list for CCCOc1ccc(C(=O)OCCN(CC)CC)cc1N [PPC, Proparacaine hydrochloride]?
animals in which block0.5 occurred (rat cornea): all animals; Block0.5 (duration without blink response to 0.5 cm filament) (rat cornea; hydrochloride): 18 ± 6 min; Block2 (duration without blink response to 2 cm filament) (rat cornea; hydrochloride): 35 min and 35 ± 10 min; Block<6 (duration without blink response to any filament less than 6 cm) (rat cornea; hydrochloride): 54 min and 54 ± 8 min

With CC[N+](CC)(CC)CC(=O)Nc1c(C)cccc1C.[Br-] [QX-314] as the compound, how does the “duration of local anesthesia” value [5] read?
Its value is “approximately 24 h”.

Which “effect of the added agent on the duration of corneal block from TTX (in words)” value (“effect of the added agent” below) (rat cornea) does the source give for CNC[C@H](O)c1cccc(O)c1 [phenylephrine] here?
The value was “at low concentrations (but not high concentrations) prolonged the duration of corneal block from TTX; also recorded: greatly prolonged the duration of corneal block by TTX”.

Which “effect of the added agent” value (rat cornea) does the source give for CCN(c1ccccc1)c1cc(NC)[n+](C)c(C)n1.[Cl-] [ZD7288, 4-(N-Ethyl-N-phenylamino)-1,2 dimethyl-6-(methylamino) pyrimidinium chloride] here?
Its value is “prolongs the duration of corneal block from TTX”.

For CNC[C@H](O)c1ccc(O)c(O)c1 [epinephrine], which “effect of the added agent” value (rat cornea) is on record?
The value was “failed to prolong corneal block”.

Which “effect of the added agent” value (rat cornea) does the source give for COc1cc2nc(N3CCN(C(=O)c4ccco4)CC3)nc(N)c2cc1OC [prazosin] here?
Its value is “did not shorten the duration of corneal block from TTX”.
